Tests used:
[1] = parameters: method as in doi:10.1007/s11172-013-0228-5; conditions: conditions not tested by the authors; cited from earlier work
HT-29 cells [2] = experiment: Protective effects against H2O2-induced oxidative stress (MTT); type: cell-based, human; conditions: for increase fold of cell survival: compound 0.03 mg/mL, 12 h
Description: An H2O2-induced oxidative damage model on HT-29 cells was established, and the cell viability was evaluated by MTT assay, as a measurement of the antioxidant activity of the compounds. Asc was used as a positive control. Briefly, 1 × 10^4 HT-29 cells per well were grown in 96-well plates. After 12 h of incubation, DMSO; 4b, 8c, 9c, and 10b compounds; or Asc were added to each well at concentrations of 0.03 and 0.003 mg/mL, and incubated for 1 h. Subsequently, H2O2 (200, 250, and 300 µM) was added and the cells were incubated for 12 h to induce cell damage. An MTT assay was performed as mentioned previously. For each treatment, the mean cell viability was calculated from three independent experiments. The DMSO-treated controls were assigned with a cell viability value of 100% (Vcontrol). The results are expressed as the increase fold of cell survival, as follows:(3) Increase fold of cell survival = (Vsample−Vsample + H2O2)/VControl−VH2O2 where Vsample refers to the viability of the cells only treated with the corresponding compound, VH2O2 refers to the viability of the HT-29 cells exposed to H2O2, and Vsample + H2O2 refers to the cell survival of each treatment with a compound and H2O2. The data are expressed as increase fold of cell survival ± standard error of the mean (SEM) in at least three independent experiments performed in quadruplicates.

MCF-7 cells = experiment: MTT cell viability assay, MCF-7; type: cell-based, human; conditions: Homo sapiens, MCF7, 48 h, read-out: Growth (%) MCF-7
Description: (§1) The cell viability assay of each compound was carried out using the MTT assay. Each compound was dissolved in dimethyl sulfoxide (DMSO) at a concentration of 0.01 M. Serial dilutions were prepared with a non-supplemented culture medium. The effect of each compound on the cell viability was determined at two different concentrations (10 and 50 µM) in MCF-7, HTB-54, and HT-29 cells. In addition, the selected compounds were tested at six different concentrations between 0.1–100 µM in MCF-7, T47D, H1299, HTB-54, and 184B5 cells.
(§2) Briefly, 1 × 10^4 tumor cells/well or 2 × 10^4 non-tumorigenic cells/well were grown in 96-well plates for 12 h. Then, these cells were incubated with either DMSO (control) or a different concentration of each of the tested compounds for 48 h. Three hours before the termination point, 20 µL of MTT were added to measure the cellular viability. The resultant formazan crystals were dissolved in 50 µL of DMSO, and the absorbance was measured at 570 and 630 nm. The results are expressed as IC50, the half maximal inhibitory concentration. This value was calculated using OriginPro 8.5.1. software (OriginLab, Northampton, MA, USA) by nonlinear curve fitting. Furthermore, the selectivity index (SI) was calculated as the ratio of the IC50 values determined for the non-malignant and the tumor cells (IC50 (184B5)/IC50 (MCF-7). The data were obtained from at least three independent experiments performed in quadruplicates.

HT-29 cells [3] = experiment: MTT cell viability assay, HT-29; type: cell-based; conditions: Homo sapiens, 48 h, read-out: Growth (%) HT-29
Description: as §1, §2

HTB-54 cells = experiment: MTT cell viability assay, HTB-54; type: cell-based; conditions: Homo sapiens, HTB-54, 48 h, read-out: Growth (%) HTB-54
Description: as §1, §2

Compound: O=[Se]([O-])[O-].[Na+].[Na+] [sodium selenite]
- DPPH radical scavenging activity [1]: only showed DPPH radical scavenging activity at pH 3.0

Compound: COc1ccc(NC(=[Se])NC(=O)c2cc3ccccc3s2)cc1 [Compound 9c]
- increase fold of cell survival (HT-29 cells [2]; H2O2 200 µM): ≤ 0.8 fold
- increase fold of cell survival (HT-29 cells [2]; H2O2 250 µM): ≤ 1.7 fold
- increase fold of cell survival (HT-29 cells [2]; H2O2 300 µM): up to 3.6 fold
- activity at 10 µM (MCF-7 cells; 10 μM): 63%
- activity at 50 µM (MCF-7 cells; 50 μM): 49.2%
- activity at 10 µM (HT-29 cells [3]; 10 μM): 47.9%
- activity at 50 µM (HT-29 cells [3]; 50 μM): 37.3%
- activity at 10 µM (HTB-54 cells; 10 μM): 64.2%
- activity at 50 µM (HTB-54 cells; 50 μM): 7.1%

Compound: O=C1O[C@H]([C@@H](O)CO)C(O)=C1O [Asc, Ascorbic acid, reference compound]
- protective effect against H2O2-induced oxidative stress (HT-29 cells [2]; 0.003 mg/mL): disappeared

— paper PMC7023466, “Novel N,N′-Disubstituted Acylselenoureas as Potential Antioxidant and Cytotoxic Agents” (Antioxidants, 2020)
